Laboratory results as given in US20210228484A1, “VETERINARY THICK GEL COMPOSITION OF HIGH PALATABILITY CONTAINING ANTIOXIDANTS TO DECREASE SARCOPENIA, OSTEOPENIA AND DNA DAMAGE FROM OXIDATIVE STRESS IN DOGS, AND PROCEDURE FOR ITS OBTENTION” (priority 2018, published 2021).

System: oxidative stress
Test: Overall effect of the antioxidant dietary complement on oxidative stress biomarkers in dogs
Assay type: in vivo
Conditions: provided alone
Source text: The evaluated biomarkers let us assure that the provision of antioxidants, particularly the mixtures of at least two antioxidants selected from Resveratrol. Pterostilbene and Vitamin E, as a dietary complement had the following effects. 1) decrease of oxidative stress, 2) highly significant decrease in the loss of skeletal muscle (CPK), 3) highly significant decrease in the loss of bone mass (ALP), and 4) decrease of 12-15% in the loss of (8(OH)dG) DNA. […] It is also possible to observe that the Vitamin E that was provided alone produced a lesser effect, compared to that of the mixture of two antioxidants that were jointly provided.

SMILES: CC(=O)Oc1c(C)c(C)c2c(c1C)CCC(C)(CCCC(C)CCCC(C)CCCC(C)C)O2 (racemic) [Vitamin E, DL-alpha tocopherol acetate]
- effect on the biomarkers compared to the mixture of two antioxidants: lesser effect
